Columns and labels:
[1] = MTT cell viability assay, NHDF; type: cell-based, human; conditions: human, normal human dermal fibroblasts (NHDF), single concentration of 10 µM, 72 h, mean ± SD; read-out: cell viability percentage in relation with control, NHDF
Description: (§1) Caco-2, MCF-7, PC-3, and NHDF cell lines were obtained from the American Type Culture Collection (ATCC) and maintained in 75 cm^2 culture flasks in a humidified atmosphere at 37 °C with 5% carbon dioxide using a LEEC Culture Safe Precision CO2 Incubator. The culture media was renewed every two to three days. The NHDF cell line was cultured in Roswell Park Memorial Institute (RPMI) medium supplemented with 10% of inactivated fetal bovine serum (FBS), 2 mM of L-glutamine, 10 mM of 4-(2-hydroxyethyl)-1-piperazineethanesulfonic acid (HEPES), 1 mM of sodium pyruvate, and 1% of antibiotic/antimycotic mixture (Ab; 10,000 U/mL of penicillin G, […] of streptomycin, and 25 µg/mL of amphotericin B). The PC-3 cell line was also cultured in RPMI 1640 medium supplemented with 10% inactivated FBS and 1% of an antibiotic mixture (Sp; 10,000 U/mL of penicillin G and […] of streptomycin). The Caco-2 and MCF-7 cell lines were grown in Dulbecco’s Modified Eagle Medium (DMEM). Caco-2 was supplemented with 20% of inactivated FBS and 1% of Sp. On the other hand, the MCF-7 medium was complemented with 10% of inactivated FBS and 1% of Ab. All manipulations were performed in a Labculture Class II A2 Biological Safety Cabinet.
(§2) After the near confluency of cultures, cells were detached with a solution of 0.125 g/L trypsin and 0.02 g/L ethylenediaminetetracetic acid (EDTA), counted using the trypan blue method, resuspended, and seeded in 96-well culture plates (100 µL, 2 × 10^4 cells/mL). Following 48 h of adherence, cells were treated with the test solutions and incubated for 72 h. This incubation, as well as the solution manipulations, were performed in an environment protected from light. After the incubation, the medium was replaced with a fresh incomplete culture medium (without FBS and Ab or Sp) and MTT solution (5 mg/mL in phosphate buffer saline (PBS)). After additional incubation for 4 h, the MTT medium was removed, formazan crystals were dissolved in DMSO, and the optical density of each well was measured at 570 nm using a microplate spectrophotometer Bio-Rad xMark. Untreated cells were used as a negative control and 5-FU as the positive control. The results were expressed as the relative cell proliferation relative to the negative control cells. […] To determine the IC50 values, Caco-2, MCF-7, PC-3, and NHDF cells were exposed to increasing concentrations between 0.001 and 100 μM.

[2] = system: normal human dermal fibroblasts (NHDF); experiment: MTT cell viability assay, NHDF; type: cell-based; conditions: Homo sapiens, NHDF, 72 h, 72 h of incubation, MTT, protected from light
Description: as §1, §2

Caco-2 cells [3] = experiment: Cell cycle distribution by propidium iodide staining and flow cytometry; type: cell-based, human; conditions: dye 12 and 5-FU 10 µM 72 h, sorbitol 600 mM 24 h, versus untreated cells
Description: (§3) The apoptosis occurrence and influence of the dye 12 on the cell cycle were evaluated using propidium iodide (PI) staining and flow cytometry, as described by Riccardi and Nicolleti. After the near confluency of the culture, trypsinisation, and counting, Caco-2 cells were seeded (2 mL, 3 × 10^4 cells/mL) in 6-well plates. After 48 h of adherence, the cells were treated with the test solutions (3 mL and 5 mL for negative control) and incubated for 72 h. Untreated cells were used as the negative control, and sorbitol and 5-FU [56] were used as positive controls for the apoptosis and cell cycle distribution studies, respectively. After incubation, the supernatant was collected and the cells were washed with PBS and combined with the cells harvested using the trypsin treatment. This cell suspension was maintained on ice and centrifugated, and then the pellet was resuspended in 0.5 mL of PBS. The cells were fixed by adding 4.5 mL of 70% ethanol cooled at −20 °C and were stored at the same temperature. For the cytometry analysis, PBS was added to the fixed cells before centrifugation, and then the ethanolic supernatant was removed. The pellet was resuspended in 0.5 mL of PBS and 0.5 mL of DNA extraction (192 mL of 0.2 M sodium phosphate and 8 mL of […], pH 7.8) was added. After incubation for 5 min, the cells were centrifuged, the supernatant was removed, and the pellet resuspended in 0.3 mL of staining solution (20 µg/mL of PI and 0.2 mg/mL of DNase-free RNase in PBS). Using a FACSCalibur flow cytometer and the 488 nm laser line, a minimum of 20,000 events were recorded. Acquisition and apoptosis analysis was performed using BD CellQuestTM Pro 4.0.2 Software. Cell cycle analysis was performed with ModFit LT 5.0.9 software. To exclude debris and necrotic cells, events with a lower diameter (forward scatter; FCS) and reduced PI fluorescence (FL3) than the hypodiploid apoptotic cells were eliminated. Two independent experiments were performed.

[4] = system: MCF-7 breast adenocarcinoma cell line; experiment: MTT cell viability assay, MCF-7; type: cell-based, human; conditions: Homo sapiens
Description: as §1, §2

[5] = Photostability evaluation in PBS (absorbance decay at 376 nm); type: physicochemical; conditions: 10 µM in PBS
Description: The photostability of the dye 12 was evaluated using a concentration of 10 µM prepared from the dilution of 10 mM DMSO stock solution in PBS. In a 96-well plate, 100 µL of dye solution was added, irradiated in the same way as that previously described for photocytotoxicity evaluation for 120 min, and spectrophotometric readings were taken over this period at the dye 12’s maximum absorption wavelength (376 nm). Two independent experiments were performed in quadruplicate. The absorbance was normalised to simplify the analysis.

[6] = system: PC-3 prostate adenocarcinoma cell line; experiment: MTT cell viability assay, PC-3; type: cell-based, human
Description: as §1, §2

[7] = system: Caco-2 colorectal adenocarcinoma cell line; experiment: MTT cell viability assay, Caco-2; type: cell-based, human; conditions: Homo sapiens, Caco-2, 72 h
Description: as §1, §2

[8] = MTT cell viability assay, Caco-2; type: cell-based, human; conditions: human, Caco-2, Caco-2 versus NHDF, 72 h; read-out: SI Caco-2 (selectivity index, cancer versus NHDF)
Description: as §1, §2

Caco-2 cells [9] = experiment: Apoptosis by propidium iodide staining and flow cytometry; type: cell-based, human
Description: as §3

With `CN1C(=Cc2oc3ccccc3[n+]2C)Oc2ccccc21.Cc1ccc(S(=O)(=O)[O-])cc1` [Dye 12, 3-Methyl-2-((3-methylbenzo[d]oxazol-2(3H)-ylidene)methyl)benzo[d]oxazol-3-ium 4-methylbenzenesulfonate] the viability at 72 h, 10 µM [1] was 41 ± 0.82%, the IC50 [2] was 14 µM and the “effect on cell cycle distribution” value (Caco-2 cells [3]) was “notorious increase in the number of cells in the G0/G1 phase”. The viability at 10 µM ([4]; MCF7, 72 h, single concentration of 10 µM, 72 h, mean ± SD, read-out: cell viability percentage in relation with control, MCF-7) was 10.8 ± 1.98%, the IC50 ([4]; MCF7, 72 h of incubation, MTT, protected from light) was 4.57 µM and the “decomposition (decrease in absorbance at 376 nm)” value ([5]; after 30 min of irradiation) was “approximately 4%”. For the same molecule, the “decomposition (decrease in absorbance at 376 nm)” value ([5]; after 120 min of irradiation) was ~5%, the viability at 10 µM ([6]; Homo sapiens, 72 h, single concentration of 10 µM, 72 h, mean ± SD, read-out: cell viability percentage in relation with control, PC-3) was 9.33 ± 4.28% and the IC50 ([6]; Homo sapiens, 72 h of incubation, MTT, protected from light) was 4.53 µM. The “SI PC-3 (selectivity index, cancer versus NHDF)” value ([6]; PC-3 versus NHDF, 72 h) was 3.1, the IC50 ([7]; 72 h of incubation, MTT, protected from light) was 670 nM and the viability at 10 µM ([7]; single concentration of 10 µM, 72 h, mean ± SD, read-out: cell viability percentage in relation with control, Caco-2) was 10 ± 0.93%. For the same molecule, the selectivity ratio at 72 h [8] was 20.9, the “increase in apoptotic cells relative to untreated cells” value (Caco-2 cells [9]; Caco-2, 10 µM, 72 h) was 2% and the “apoptosis induced (percent of cells)” value (Caco-2 cells [9]; Caco-2, dye 12 10 µM 72 h, sorbitol 600 mM 24 h) was “about 3%”.
